Earlier results in patent US12433839B2, “Sustained release particle formulations” (Adare Pharmaceuticals USA, Inc., priority 2011, dated 2025).

Conditions: in vivo

COc1ccccc1OCC(O)CO (stereo not shown) [guaifenesin]
typical plasma half-life: about one
